Test: Drug absorption in human assessed as human intestinal absorption rate
Assay type: ADME, tissue-based, Intestine

| Structure (SMILES) | log10(%HIA +10) |
| --- | --- |
| C[C@@H](O)[C@H]1C(=O)N2C(C(=O)O)=C(SCCN=CN)C[C@H]12 [IMIPENEM ANHYDROUS] | 1.176 |
| O=C1Cc2cc(CCN3CCN(c4nsc5ccccc45)CC3)c(Cl)cc2N1 [ZIPRASIDONE] | 1.845 |
| CC(C)NCC(O)COc1ccc(CC(N)=O)cc1 (stereo unspecified) [ATENOLOL] | 1.785 |
| C[C@H](CS)C(=O)N1CCC[C@H]1C(=O)O [CAPTOPRIL] | 1.892 |
| CC[C@H]1OC(=O)[C@H](C)[C@@H](O[C@H]2C[C@@](C)(OC)[C@@H](O)[C@H](C)O2)[C@H](C)[C@@H](O[C@@H]2O[C@H](C)C[C@H](N(C)C)[C@H]2O)[C@](C)(O)C[C@@H](C)CN(C)[C@H](C)[C@@H](O)[C@]1(C)O [AZITHROMYCIN] | 1.663 |
| CCN(C)C(=O)Oc1cccc([C@H](C)N(C)C)c1 [RIVASTIGMINE] | 2.041 |
| Cc1ccccc1N1C(=O)c2cc(S(N)(=O)=O)c(Cl)cc2NC1C (stereo unspecified) [METOLAZONE] | 1.863 |
| NC(=O)N1C(=O)/C(=C(\O)c2cccs2)c2cc(Cl)ccc21 [TENIDAP] | 1.996 |
| NS(=O)(=O)c1cc(C(=O)O)c(NCc2ccco2)cc1Cl [FUROSEMIDE] | 1.851 |
| CCOC(=O)[C@H](CCc1ccccc1)N[C@@H](C)C(=O)N1[C@H](C(=O)O)C[C@H]2CCCC[C@@H]21 [TRANDOLAPRIL] | 1.778 |
| OC[C@H]1O[C@H](OC[C@H]2O[C@H](O[C@]3(CO)O[C@H](CO)[C@@H](O)[C@@H]3O)[C@H](O)[C@@H](O)[C@@H]2O)[C@H](O)[C@@H](O)[C@H]1O [RAFFINOSE] | 1.013 |
| CC(=O)Oc1cc(C(C)C)c(OCCN(C)C)cc1C [MOXISYLYTE] | 1.903 |
| COc1ccccc1N1CCN(CCCNc2cc(=O)n(C)c(=O)n2C)CC1 | 1.945 |
| CNC(=O)c1c(I)c(NC(C)=O)c(I)c(C(=O)O)c1I [IOTHALAMIC ACID] | 1.076 |
| COc1ccc2c3c1O[C@H]1C(=O)CC[C@@]4(O)[C@@H](C2)N(C)CC[C@]314 [OXYCODONE] | 1.845 |
| O=C(O)c1ccccc1C(=O)Nc1ccc(S(=O)(=O)Nc2nccs2)cc1 [PHTHALYLSULFATHIAZOLE] | 1.176 |
| CCc1cccc2c3c([nH]c12)C(CC)(CC(=O)O)OCC3 (stereo unspecified) [ETODOLAC] | 1.903 |
| COc1cccc2c1C(=O)c1c(O)c3c(c(O)c1C2=O)C[C@@](O)(C(=O)CO)C[C@@H]3O[C@H]1C[C@H](N)[C@H](O)[C@H](C)O1 [DOXORUBICIN] | 1.176 |
| C[C@@H]1O[C@@H](O[C@H]2C[C@@H](O)[C@]3(CO)[C@H]4[C@H](O)C[C@]5(C)[C@@H](C6=CC(=O)OC6)CC[C@]5(O)[C@@H]4CC[C@]3(O)C2)[C@H](O)[C@H](O)[C@H]1O [OUABAIN] | 1.057 |
| OCCN(CCO)c1nc(N2CCCCC2)c2nc(N(CCO)CCO)nc(N3CCCCC3)c2n1 [DIPYRIDAMOLE] | 1.833 |
| Cc1cc(C(=O)NNCc2ccccc2)no1 [ISOCARBOXAZID] | 1.903 |
| CN(Cc1cc(Br)cc(Br)c1N)C1CCCCC1 [BROMHEXINE] | 1.903 |
| CO[C@H]1C[C@H](O[C@H]2CC[C@]3(C=O)[C@H]4CC[C@]5(C)[C@@H](C6=CC(=O)OC6)CC[C@]5(O)[C@@H]4CC[C@]3(O)C2)O[C@H](C)[C@H]1O [CYMARIN] | 1.756 |
| N#C[C@H](O[C@@H]1O[C@H](CO[C@@H]2O[C@H](CO)[C@@H](O)[C@H](O)[C@H]2O)[C@@H](O)[C@H](O)[C@H]1O)c1ccccc1 [AMYGDALIN] | 1.176 |
| C[C@H]1[C@H](NC(=O)/C(=N\OC(C)(C)C(=O)O)c2csc(N)n2)C(=O)N1S(=O)(=O)O [AZTREONAM] | 1.041 |
| COc1cc(Cc2cnc(N)nc2N)cc(OC)c1OC [TRIMETHOPRIM] | 2.029 |

| Structure (SMILES) | log10(%HIA +10) |
| --- | --- |
| Nc1ccn(C[C@@H](CO)OCP(=O)(O)O)c(=O)n1.O.O [CIDOFOVIR] | 1.114 |
| CCc1oc2ccccc2c1C(=O)c1cc(Br)c(O)c(Br)c1 [BENZBROMARONE] | 1.919 |
| CCOC(=O)[C@H](CCc1ccccc1)N[C@@H](C)C(=O)N1Cc2cc(OC)c(OC)cc2C[C@H]1C(=O)O [MOEXIPRIL] | 1.176 |
| COCC(=O)O[C@]1(CCN(C)CCCc2nc3ccccc3[nH]2)CCc2cc(F)ccc2[C@@H]1C(C)C [MIBEFRADIL] | 1.898 |
| CO/N=C(\C(=O)N[C@@H]1C(=O)N2C(C(=O)O)=C(CSc3nc(=O)c(=O)[nH]n3C)CS[C@H]12)c1csc(N)n1 [CEFTRIAXONE] | 1.041 |
| CCOC(=O)[C@H](CCc1ccccc1)N[C@@H](C)C(=O)N1CCC[C@H]1C(=O)O.O=C(O)/C=C\C(=O)O [ENALAPRIL MALEATE] | 1.881 |
| Nc1ccn([C@@H]2CS[C@H](CO)O2)c(=O)n1 [LAMIVUDINE] | 1.987 |
| OCCOCCN1CCN(C2=Nc3ccccc3Sc3ccccc32)CC1 [QUETIAPINE] | 1.919 |
| O=C(COCCOCCOCC(=O)Nc1c(I)cc(I)c(C(=O)O)c1I)Nc1c(I)cc(I)c(C(=O)O)c1I [IOTROXIC ACID] | 1.176 |
| CCN[C@@H]1C[C@H](N)[C@@H](O[C@H]2OC(CN)=CC[C@H]2N)[C@H](O)[C@H]1O[C@H]1OC[C@](C)(O)[C@H](NC)[C@H]1O [NETILMICIN] | 1 |
| CC1(C)S[C@@H]2[C@H](NC(=O)[C@H](C(=O)O)c3ccsc3)C(=O)N2[C@H]1C(=O)O [TICARCILLIN] | 1.176 |
| NC(=O)OCC(COC(N)=O)c1ccccc1 [FELBAMATE] | 2 |
| N[C@@H](C(=O)N[C@@H]1C(=O)N2C(C(=O)O)=C(CSc3c[nH]nn3)CS[C@H]12)c1ccc(O)cc1 [CEFATRIZINE] | 1.934 |
| CC1(C)S[C@@H]2[C@H](NC(=O)[C@H](N)c3ccc(O)cc3)C(=O)N2[C@H]1C(=O)O [AMOXICILLIN] | 2.016 |
| CC(=O)Nc1ccc(O)cc1 [ACETAMINOPHEN] | 1.978 |
| CC(=O)OCC(CCn1cnc2cnc(N)nc21)COC(C)=O [FAMCICLOVIR] | 1.903 |
| CC1(C)S[C@@H]2[C@H](NC(=O)[C@H](NC(=O)N3CCN(S(C)(=O)=O)C3=O)c3ccccc3)C(=O)N2[C@H]1C(=O)O [MEZLOCILLIN] | 1 |
| CNC(=C[N+](=O)[O-])NCCSCc1ccc(CN(C)C)o1 [RANITIDINE] | 1.798 |
| O=C(O)Cc1ccccc1Nc1c(Cl)cccc1Cl [DICLOFENAC] | 2.041 |
| O=C1CN2Cc3c(ccc(Cl)c3Cl)N=C2N1 [ANAGRELIDE] | 1.903 |
| OC(Cn1cncn1)(Cn1cncn1)c1ccc(F)cc1F [FLUCONAZOLE] | 2.027 |
| Cc1cccc(C)c1NC(=O)NCCCNC(C)C | 1.909 |
| CC(CCc1ccccc1)NCC(O)c1ccc(O)c(C(N)=O)c1 (stereo unspecified) [LABETALOL] | 2.021 |
| N[C@@H]1CON=C1O [CYCLOSERINE] | 1.919 |
| CCCCC(=O)N(Cc1ccc(-c2ccccc2-c2nnn[nH]2)cc1)[C@H](C(=O)O)C(C)C | 1.813 |
| NC[C@H]1O[C@H](O[C@H]2[C@H](O)[C@@H](O[C@H]3O[C@H](CO)[C@@H](O)[C@H](N)[C@H]3O)[C@H](N)C[C@@H]2N)[C@H](O)[C@@H](O)[C@@H]1O [KANAMYCIN] | 1.041 |

| Structure (SMILES) | log10(%HIA +10) |
| --- | --- |
| C=CCNc1nc(NCC=C)nc(N2CCN(C(c3ccc(F)cc3)c3ccc(F)cc3)CC2)n1 [ALMITRINE] | 2 |
| CO/N=C(\C(=O)N[C@@H]1C(=O)N2C(C(=O)O)=C(COC(N)=O)CS[C@H]12)c1ccco1 [CEFUROXIME] | 1.176 |
| N=C(N)NC(=O)c1nc(Cl)c(N)nc1N [AMILORIDE] | 1.778 |
| O=C(O)P(=O)(O)O [FOSCARNET] | 1.431 |
| CCOC(=O)Nc1ccc2c(c1)N(C(=O)CCN1CCOCC1)c1ccccc1S2 [MORICIZINE] | 1.991 |
| Cn1c(=O)c2c(ncn2CCCNCC(O)c2cc(O)cc(O)c2)n(C)c1=O (stereo unspecified) [REPROTEROL] | 1.845 |
| CC(C)NCC(O)c1cc(O)cc(O)c1 (stereo unspecified) [METAPROTERENOL] | 1.732 |
| CCN(CC)C(=S)SSC(=S)N(CC)CC | 2.029 |
| CC(=O)Oc1ccccc1C(=O)O [ASPIRIN] | 2.041 |
| CCCc1cc(=O)[nH]c(=S)[nH]1 [PROPYLTHIOURACIL] | 1.929 |
| CC(C)(C)NCC(O)COc1cccc2c1CC(O)C(O)C2 (stereo unspecified) [NADOLOL] | 1.613 |
| Nc1cc(N2CCCCC2)nc(N)[n+]1[O-] [MINOXIDIL] | 2.033 |
| CCCC(=O)Nc1ccc(OCC(O)CNC(C)C)c(C(C)=O)c1 (stereo unspecified) [ACEBUTOLOL] | 1.999 |
| C[C@@H]1O[C@@H]1P(=O)(O)O [FOSFOMYCIN] | 1.613 |
| C[C@@H]1[C@H](O)[C@@H](C)/C=C/C=C/C=C/C=C/C=C/C=C/C=C/[C@H](O[C@@H]2O[C@H](C)[C@@H](O)[C@H](N)[C@@H]2O)C[C@@H]2O[C@](O)(C[C@@H](O)C[C@@H](O)[C@H](O)CC[C@@H](O)C[C@@H](O)CC(=O)O[C@H]1C)C[C@H](O)[C@H]2C(=O)O [AMPHOTERICIN B] | 1.176 |
| [H]/N=C(/N)N[C@H]1[C@H](O)[C@@H](O)[C@H](O[C@@H]2O[C@@H](C)[C@](O)(C=O)[C@H]2O[C@@H]2O[C@@H](CO)[C@H](O)[C@@H](O)[C@@H]2NC)[C@@H](N/C(N)=N\[H])[C@@H]1O [STREPTOMYCIN] | 1.041 |
| CC(NC(C)(C)C)C(=O)c1cccc(Cl)c1 (stereo unspecified) [BUPROPION] | 1.987 |
| Cc1c(N(C)C)c(=O)n(-c2ccccc2)n1C [AMINOPYRINE] | 2.041 |
| C[C@]12CCC(=O)C=C1CC[C@@H]1[C@@H]2[C@@H](O)C[C@@]2(C)[C@H]1CC[C@]2(O)C(=O)CO [HYDROCORTISONE] | 2.004 |
| O=C(N[C@H](CO)[C@H](O)c1ccc([N+](=O)[O-])cc1)C(Cl)Cl [CHLORAMPHENICOL] | 2 |
| Cn1c(=O)c2c(ncn2C)n(C)c1=O [CAFFEINE] | 2.041 |
| CN1C[C@H](C(=O)N[C@]2(C)O[C@@]3(O)[C@@H]4CCCN4C(=O)[C@H](Cc4ccccc4)N3C2=O)C[C@@H]2c3cccc4[nH]cc(c34)C[C@H]21 [DIHYDROERGOTAMINE] | 1.653 |
| COc1ccc2c(C(=S)N(C)CC(=O)O)cccc2c1C(F)(F)F [TOLRESTAT] | 1.881 |
| C=CCc1ccccc1OCC(O)CNC(C)C (stereo unspecified) [ALPRENOLOL] | 2.016 |

Source: ChEMBL document CHEMBL1649380, “Prediction of drug intestinal absorption by new linear and non-linear QSPR” (Eur J Med Chem, 2011)
